Results published in patent publication US8163805B2, “Small molecule antagonists of Bcl-2 family proteins” (The Regents of the University of Michigan, priority 2001, dated 2012).
Several values for one entry are separate records, joined by “and”; a condition that tells them apart may be missing. Identical values can stand only once. Like-named read-outs stand apart in the source and are kept apart here.

Columns and labels:
[1] = system: UM-SCC-1; assay: Trypan blue exclusion cell death, UM-SCC-1; type: cell-based, human; conditions: 10 μM, 48 hour
Method: (§1) Cells were seeded in 24 or 96-well-plates and gossypol compounds were prepared at 2-10 fold dilutions in suitable medium. […] Cell viability was then determined by the trypan-blue assays. Inhibition of cell growth was determined by treating cells with gossypol compounds for 3-6 days. Cell inhibition was determined using XTT. In some embodiments, MTT assays are used to determine cell inhibition.

[2] = system: fibroblast cell lines; assay: Flow cytometric TUNEL apoptosis assay, fibroblast cell lines; type: cell-based, human; conditions: 10 μM, 48-hour
Method: Briefly, FIGS. 24A-24C show apoptosis after (−)-gossypol as measured by a fluorescent flow cytometric TUNEL assay. Open peaks represent BrdU labeling of untreated cells. Shaded peaks indicate BrdU labeling of cell populations following 48-hour treatment with 10 μM (−)-gossypol; FIG. 24A, UM-SCC-cell lines with wild type p53; FIG. 24B, UM-SCC-cell lines with mutant p53; and FIG. 24C normal fibroblast cells.
Apoptosis of UM-SCC cell lines following (−)-gossypol treatment was quantitatively detected by enzymatic labeling of DNA strand breaks using terminal deoxynucleotidyltransferase (TdT) and Alexa Fluor-BrdUTP, known as the TdT-UTP nick end-labeling (TUNEL) assay by flow cytometry. Cells were exposed to (−)-gossypol for 48 hours, harvested, fixed and TUNEL stained according to the manufacturer's protocol (Molecular Probes Inc., Eugene, Oreg.). Ten thousand cells were analyzed per sample using excitation of Alexa Fluor at 488 nm. Apoptotic index (AI) was defined as percent of apoptotic cells in the treatment population minus that in the vehicle control population.

[3] = system: Fib-1 (fibroblast cell line 1); assay: 6-day MTT cell growth, Fib-1; type: cell-based, human; conditions: read-out: IC50, inhibition of cell growth
Method: (§2) UM-SCC and human fibroblast cell lines were continuously exposed to varying concentrations of (−)-gossypol in 6-day MTT cell survival assays. Control wells contained media (DMEM) with vehicle alone. For each data point n=5.
(§3) Ten squamous cell carcinoma cell lines established at the University of Michigan (UM-SCC) and three human fibroblast lines were grown in Dulbecco's modified Eagle's medium (DMEM) supplemented with 10% fetal bovine serum. UM-SCC cell lines originated from the larynx (n=2; UM-SCC-12, -23), oral cavity/oropharynx (n=5; UM-SCC-1, -6, -14A, -74B, -81B), hypopharynx (n=1; UM-SCC-22A) and metastases from laryngeal cancers (n=2; UM-SCC-17B, -25). Human fibroblast cell lines originated from surgical specimens (fibroblast cell lines 2 and 3) and neonatal foreskin samples (fibroblast cell line 1).
(§4) Logarithmically growing cell lines were cultured, washed, counted, and plated at 5,000-15,000 cells per well in duplicate wells of 96-well plates and incubated in DMEM overnight. […] The MTT assay measures cell survival based on mitochondrial conversion of MTT from a soluble tetrazolium salt into an insoluble colored formazan precipitate, which is dissolved in dimethyl sulfoxide and quantitated by spectrophotometry. […] Percent absorbance relative to control was plotted as a linear function of drug concentration.

[4] = molecular target: T1, Bcl-XL (Homo sapiens, UniProt Q07817, DEL45-84); assay: FP binding assay, Flu-Bid 21-residue peptide and Bcl-XL (FIG. 5, 46)
T1 construct: His-tag (N); made in house

[5] = system: normal human fibroblast WI-38 cells; assay: MTT-based 5-day cell proliferation, WI-38; conditions: WI-38, FIG. 42
Excerpt: (§5) The present invention is not limited to any mechanism. Indeed, a mechanistic understanding of the invention is unnecessary to practice (make and use) the present compositions and methods.

[6] = system: PC-3 human prostate cancer bilateral xenografts; assay: PC-3 xenograft, (−)-gossypol alone and with cisplatin (Table 11); type: in vivo, NCr-nu nude mouse; conditions: Table 11
[7] = system: UM-SCC cell lines; assay: Flow cytometric TUNEL apoptosis assay, UM-SCC cell lines grouped by p53 status; type: cell-based, human; conditions: 48-hour
[8] = system: androgen independent prostate cancer PC-3 xenograft; assay: PC-3 xenograft, (−)-gossypol alone and with docetaxel (Example 22); conditions: for complete tumor regression, number of mice: combination of (−)-gossypol with docetaxel
[9] = system: human breast cancer MDA-MB-231 (2LMP) xenograft; conditions: Table 8
[10] = system: PC-3 prostate cancer cells; assay: MTT-based 5-day cell proliferation, PC-3; set-up: species or system human
Excerpt: as §5

[11] = system: Fib-3 (fibroblast cell line 3); assay: 6-day MTT cell growth, Fib-3; type: cell-based, human; conditions: read-out: IC50, inhibition of cell growth
Method: as §2, §3, §4

[12] = molecular target: T2, Bcl-XL and pro-apoptotic protein Bim (Homo sapiens, UniProt Q07817); assay: Immunoprecipitation of Bcl-XL/Bim heterodimerization in HT-29 cells; type: cell-based; conditions: HT-29, starting at 8 hrs
T2 construct: endogenous in cells; host or cells: HT-29 colon cancer cells
Method: In one embodiment HT-29 colon cancer cells, which express only the Bcl-xL protein, were treated with (−)-gossypol at various doses for 4 hrs, 8 hrs, and 12 hrs. To avoid the detergent effects on the dimerization of Bcl-xL proteins in immunoprecipitation experiments, following the treatment of cells with gossypol, immunoprecipitation of cell lysates was carried out in the Chaps buffer with the anti-Bcl-XL antibody. The Bcl-XL bound proteins were then immunoblotted with anti-Bim antibody. […] There is no change in the total Bcl-XL or Bim protein in the same lysates following the (−)-gossypol treatment.

[13] = system: UM-SCC-6; assay: Trypan blue exclusion cell death, UM-SCC-6; type: cell-based, human; conditions: 10 μM, 48 hour
Method: as §1

[14] = system: MCF-7 breast cancer cell line; assay: Growth inhibition with TAXOL in fixed ratio, MCF-7; type: cell-based, human; conditions: combinations in a fixed ratio to TAXOL
[15] = system: LnCap prostate cancer cells; assay: MTT-based 5-day cell proliferation, LnCap; set-up: species or system human
Excerpt: as §5

[16] = (−)-gossypol 7.5 mg/kg p.o. daily 4 weeks, docetaxel 7.5 mg/kg once a week 3 weeks

T1 sequence (Q07817 with tags, fused parts or gaps DEL45-84 limits assumed): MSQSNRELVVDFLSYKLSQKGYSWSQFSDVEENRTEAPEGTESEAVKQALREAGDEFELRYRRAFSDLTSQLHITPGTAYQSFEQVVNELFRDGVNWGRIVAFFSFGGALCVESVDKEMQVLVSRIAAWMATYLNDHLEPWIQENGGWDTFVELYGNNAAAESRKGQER
T2 sequence (Q07817 whole entry): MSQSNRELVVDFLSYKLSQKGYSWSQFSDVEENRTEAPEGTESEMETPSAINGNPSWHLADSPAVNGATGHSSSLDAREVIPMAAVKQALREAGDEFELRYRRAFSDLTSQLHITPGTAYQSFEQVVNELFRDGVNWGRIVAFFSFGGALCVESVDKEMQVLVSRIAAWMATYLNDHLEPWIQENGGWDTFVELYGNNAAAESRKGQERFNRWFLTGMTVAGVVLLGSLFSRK

Cc1cc2c(C(C)C)c(O)c(O)c(C=O)c2c(O)c1-c1c(C)cc2c(C(C)C)c(O)c(O)c(C=O)c2c1O [(−)-gossypol]
surviving (trypan blue excluding) fraction relative to untreated controls [1]: 20%
induction of apoptosis [2]: no induction of apoptosis
IC50 [3]: 20 µM
inhibition of binding between Bad BH3 peptide and Bcl-XL [4]: directly inhibit binding between Bad BH3 peptide and Bcl-XL
cytotoxicity [5]: very limited effect
tumor growth inhibition compared with vehicle control ([6]; (−)-gossypol 7.5 mg/kg p.o. in combination with cisplatin 5 mg/kg i.v.): cisplatin at 5 mg/kg achieved 65%
weight loss during the treatment ([6]; combination regimen of (−)-gossypol 7.5 mg/kg p.o. with cisplatin 5 mg/kg i.v.): CDDP alone, and 20-23% weight
mean apoptotic index ([7]; two cell lines with mutant p53, 10 μM): 20.7%±9.3
mean apoptotic index (AI) ([7]; two wild-type p53 tumor cell lines, 10 μM): 85.2%±6.9
Complete tumor regression/Total [8, 16]: 2 out of 12 and 2/12
Percent regression [8, 16]: 17%
tumor growth inhibition compared with vehicle control ([8]; Table 9, (−)-gossypol 15 mg/kg p.o. in combination with docetaxel 7.5 mg/kg i.v.): 84% tumor growth inhibition as
tumor growth inhibition on day 42 ([8]; Table 9, PC-3 flank xenografts (~100 mm^3 at start), NCr-nu nude mouse, 15 mg/kg daily p.o., alone): growth inhibition (52% on day 42,
complete tumor regression, number of mice ([8]; Table 9, out of 5 mice): complete tumor regression in 3 out mice
tumor inhibition compared with vehicle control ([8]; Table 10, (−)-gossypol in combination with docetaxel 7.5 mg/kg i.v.): at 7.5 mg/kg achieved 89.9% tumor
tumor growth inhibition on day 56 compared to vehicle controls ([8]; Table 10, PC-3 flank xenografts (~120 mm^3 at start), NCr-nu nude mouse, daily p.o. for 28 days, alone (racemic 15 mg/kg)): antitumor activity (60% on day 56,
complete tumor regression, number of mice ([8]; Table 10, out of 8 mice): complete tumor regression in 5 out mice
tumor growth inhibition ([9]; (−)-gossypol 7.5 mg/kg p.o. in combination with docetaxel 7.5 mg/kg i.v., p < 0.01): there was more than 90% tumor
tumor growth inhibition ([9]; (−)-gossypol 30 mg/kg p.o. q day for 4 weeks, alone): 30 mg/kg of G-, there was 40%
anti-tumor effect ([9]; (−)-gossypol 15 or 7.5 mg/kg p.o. alone): did not achieve significant anti-
tumor growth inhibition ([9]; (−)-gossypol at any of the three doses (7.5, 15, 30 mg/kg p.o.) in combination with docetaxel 7.5 mg/kg i.v.): all achieved significant tumor
tumor regression, number of mice ([9]; (−)-gossypol in combination with docetaxel, 8 mice per group): There was tumor regression in 3 mice
inhibition of tumor growth by (−)-gossypol alone ([9]; MDA-231 fat-pad xenografts, Balb/c nude mouse, 7.5, 15 or 30 mg/kg p.o. q day for 4 weeks, alone): There was dose-dependent
potency in inhibiting cancer cell growth relative to (+)-gossypol [10]: 5-10 times
potency in inhibiting cancer cell growth relative to racemic gossypol [10]: 2 times
IC50 [11]: 18 µM
binding of Bcl-XL and Bim in intact cells [12]: dose-dependent decrease in the binding of Bcl-XL and pro-apoptotic protein Bim
surviving (trypan blue excluding) fraction relative to untreated controls [13]: 9%
IC50 [14]: 8.71 µM
potency in inhibiting cancer cell growth relative to (+)-gossypol [15]: 5-10 times
potency in inhibiting cancer cell growth relative to racemic gossypol [15]: 2 times
